# According to ChEMBL document CHEMBL1629650 (2009):
# Experiments:
# Type in all cases: functional
# [1] = tested on: Mycobacterium tuberculosis; assay: Antibacterial activity against Mycobacterium tuberculosis H37Rv by modified conventional agar proportion method
# [2] = tested on: Mycobacterium tuberculosis; assay: Antibacterial activity against HYG cassette-positive Mycobacterium tuberculosis Rv4401 by modified conventional agar proportion method
# [3] = tested on: Mycobacterium tuberculosis; assay: Antibacterial activity against HYG cassette-positive Mycobacterium tuberculosis Rv4400 by modified conventional agar proportion method
# [4] = tested on: Mycobacterium tuberculosis; assay: Antibacterial activity against HYG cassette-positive Mycobacterium tuberculosis B5401 by modified conventional agar proportion method
# [5] = tested on: Mycobacterium tuberculosis; assay: Antibacterial activity against HYG cassette-positive Mycobacterium tuberculosis Rv8100 by modified conventional agar proportion method
# [6] = tested on: Mycobacterium tuberculosis; assay: Antibacterial activity against HYG cassette-positive Mycobacterium tuberculosis B5200 by modified conventional agar proportion method
# [7] = tested on: Mycobacterium tuberculosis; assay: Antibacterial activity against HYG cassette-positive Mycobacterium tuberculosis B5400 by modified conventional agar proportion method
# [8] = tested on: Mycobacterium tuberculosis; assay: Antibacterial activity against HYG cassette-positive Mycobacterium tuberculosis RvAS9 by modified conventional agar proportion method
# [9] = tested on: Mycobacterium tuberculosis; assay: Antibacterial activity against HYG cassette-positive Mycobacterium tuberculosis B5201 by modified conventional agar proportion method
# [10] = tested on: Mycobacterium tuberculosis; assay: Antibacterial activity against HYG cassette-negative Mycobacterium tuberculosis H37Rv by modified conventional agar proportion method
# [11] = tested on: Mycobacterium tuberculosis; assay: Antibacterial activity against HYG cassette-positive Mycobacterium tuberculosis BAS10 by modified conventional agar proportion method
# [12] = tested on: Mycobacterium tuberculosis; assay: Antibacterial activity against HYG cassette-negative Mycobacterium tuberculosis Beijing by modified conventional agar proportion method
# [13] = tested on: Mycobacterium tuberculosis; assay: Antibacterial activity against Mycobacterium tuberculosis Beijing by modified conventional agar proportion method
# [14] = tested on: Mycobacterium tuberculosis; assay: Antibacterial activity against HYG cassette-positive Mycobacterium tuberculosis Rv8101 by modified conventional agar proportion method
structure (smiles),measurement,setting,value
CC[C@@H](CO)NCCN[C@@H](CC)CO [ETHAMBUTOL],MIC,[1],5 µg/mL
same,MIC,[2],10 µg/mL
same,MIC,[3],10 µg/mL
same,MIC,[4],5 µg/mL
same,MIC,[5],5 µg/mL
same,MIC,[6],5 µg/mL
same,MIC,[7],5 µg/mL
same,MIC,[8],5 µg/mL
same,MIC,[9],5 µg/mL
same,MIC,[10],5 µg/mL
same,MIC,[11],5 µg/mL
same,MIC,[12],5 µg/mL
same,MIC,[13],5 µg/mL
same,MIC,[14],5 µg/mL
